Measurements reported in US9650395B2, “Antibacterial compounds and methods for use” (PTC Therapeutics, Inc., priority 2011, dated 2017).
In brackets after ≈: the same amount, converted by molar mass. Where a name gives a salt, the structure may show the parent alone. Read-outs that look alike come from different tables or passages of the source.

What was measured:
[1] = test system: super sensitive Gram-negative Escherichia coli (E. coli) BAS849; test: Antibacterial activity, microbroth dilution MIC, E. coli BAS849; format: cell-based; details: for MIC: Escherichia coli, read-out: MIC, BAS849
[2] = test system: control Gram-negative E. coli 25922 strain; test: Antibacterial activity, microbroth dilution MIC, E. coli 25922; format: cell-based, Escherichia coli; details: E. coli 25922, microbroth dilution; for MIC: Escherichia coli, read-out: MIC, 25922
[3] = test system: Gram-positive Staphylococcus aureus (S. aureus) 29213; test: Antibacterial activity, microbroth dilution MIC, S. aureus 29213; format: cell-based; details: S. aureus 29213, microbroth dilution; for MIC: Staphylococcus aureus, read-out: MIC, 29213
[4] = test system: quinolone resistant E. coli LZ3111; test: Antibacterial activity, MIC, quinolone resistant E. coli LZ3111; format: cell-based, Escherichia coli; details: for MIC: Escherichia coli, read-out: MIC, LZ3111
Excerpt: (§1) The antibacterial activity from a microbroth dilution method may be presented as the minimum inhibitory concentration (MIC in […]). The MIC value is the lowest concentration of a drug which prevents macroscopically visible bacterial growth under test conditions.
Mutations in these regions are known to confer a high level resistance to the quinolone class of antibiotics.

[5] = test system: E. coli ELZ4000 (MDR clinical isolate); test: Antibacterial activity, MIC, MDR E. coli ELZ4000; format: cell-based, Escherichia coli; details: E. coli ELZ4000, MDR clinical isolate; for MIC: Escherichia coli, read-out: MIC ELZ4000
[6] = test system: E. coli ELZ4251 (MDR clinical isolate); test: Antibacterial activity, MIC, MDR E. coli ELZ4251; format: cell-based, Escherichia coli; details: E. coli ELZ4251, MDR clinical isolate; for MIC: Escherichia coli, read-out: MIC ELZ4251
[7] = test system: Acinetobacter baumannii (A. baumannii) BAA747; test: Antibacterial activity, MIC, A. baumannii BAA747; format: cell-based; details: A. baumannii BAA747; for MIC: Acinetobacter baumannii, read-out: MIC BAA747
[8] = test system: Klebsiella pneumoniae (K. pneumoniae) 35657; test: Antibacterial activity, MIC, K. pneumoniae 35657; format: cell-based; details: for MIC: Klebsiella pneumoniae
[9] = test system: Pseudomonas aeruginosa (P. aeruginosa) 27853; test: Antibacterial activity, MIC, P. aeruginosa 27853; format: cell-based; details: P. aeruginosa 27853; for MIC: Pseudomonas aeruginosa, read-out: MIC 27853
Excerpt: as §1
Antibacterial activity of test compounds against the Gram-negative bacterium Pseudomonas aeruginosa (P. aeruginosa) 27853 is shown in Table 5.

[10] = test system: Haemophilus influenzae (H. influenzae) 49247; test: Antibacterial activity, MIC, H. influenzae 49247; format: cell-based; details: H. influenzae 49247; for MIC: Haemophilus influenzae, read-out: MIC 49247
In short: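 A microbroth dilution method gave the minimum inhibitory concentration for each compound against H. influenzae 49247, a Gram-negative bacterium. MIC means the smallest concentration of drug at which no macroscopically visible bacterial growth appears under the conditions of the test.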

[11] = test system: Moraxella catarrhalis (M. catarrhalis) 25238; test: Antibacterial activity, MIC, M. catarrhalis 25238; format: cell-based; details: M. catarrhalis 25238; for MIC: Moraxella catarrhalis, read-out: MIC 25238
[12] = test system: Neisseria meningitidis (N. meningitidis) 13090; test: Antibacterial activity, MIC, N. meningitidis 13090; format: cell-based; details: N. meningitidis 13090; for MIC: Neisseria meningitidis, read-out: MIC 13090
[13] = test system: resistant A. baumannii MXX2240 (MDR clinical isolate); test: Antibacterial activity, MIC, resistant A. baumannii MXX2240; format: cell-based, Acinetobacter baumannii; details: resistant A. baumannii MMX2240, MDR clinical isolate
[14] = E. coli BAS849, microbroth dilution

Row | SMILES | MIC [1, 14] [mg/L] | MIC [2] [mg/L] | MIC [3] [mg/L] | MIC [4] [mg/L] | MIC [5] [mg/L] | MIC [6] [mg/L] | MIC [7] [mg/L] | MIC [8] [mg/L] | MIC [9] [mg/L] | MIC [10] [mg/L] | MIC [11] [mg/L] | MIC [12] [mg/L] | further results
1 | CCc1c(-c2ccc(N3C[C@H]4CCCC[C@@]4(CN(C)C)C3)cc2)[nH]c(=O)c(C(=O)O)c1O.Cl [Cpd 266, 6-(4-{(3aR,7aS)-3a-[(dimethylamino)methyl]octahydro-2H-isoindol-2-yl}phenyl)-5-ethyl-4-hydroxy-2-oxo-1,2-dihydropyridine-3-carboxylic acid hydrochloride] | 1 to 3.5 | 12.5 to 150 | 3.5 to 12.5 | 3.5 to 12.5 | 12.5 to 150 | 12.5 to 150 | 12.5 to 150 | 12.5 to 150 | 12.5 to 150 |  |  |  | 
2 | CCc1cc(C(=O)O)c(=O)[nH]c1-c1ccc(N(C)C)c(F)c1 [Cpd 93, 6-[4-(dimethylamino)-3-fluorophenyl]-5-ethyl-2-oxo-1,2-dihydropyridine-3-carboxylic acid] | < 1 | 12.5 to 150 (≈ 41.1 to 493 µM) | 12.5 to 150 (≈ 41.1 to 493 µM) | 12.5 to 150 (≈ 41.1 to 493 µM) | 12.5 to 150 (≈ 41.1 to 493 µM) | 12.5 to 150 (≈ 41.1 to 493 µM) | 12.5 to 150 (≈ 41.1 to 493 µM) | 12.5 to 150 (≈ 41.1 to 493 µM) | 12.5 to 150 (≈ 41.1 to 493 µM) | < 1 | < 1 | < 1 | 
3 | CCc1c(-c2ccc(N3C[C@@H]4[C@@H](N)[C@@H]4C3)cc2)[nH]c(=O)c(C(=O)O)c1O [Cpd 285, 6-{4-[(1R,5S,6s)-6-amino-3-azabicyclo[3.1.0]hex-3-yl]phenyl}-5-ethyl-4-hydroxy-2-oxo-1,2-dihydropyridine-3-carboxylic acid] |  |  |  |  | 12.5 to 150 (≈ 35.2 to 422 µM) |  |  |  |  | < 1 | 1 to 3.5 (≈ 2.81 to 9.85 µM) | < 1 | MIC ELZ4251 [6]: ** (an MIC value between >3.5 μg/mL and ≦12.5 μg/mL is indicated by two stars (**)); MIC 35657 [8]: *** (an MIC value between >1.0 μg/mL and ≦3.5 μg/mL is indicated by three stars (***)); MIC MMX2240 [13]: * (an MIC value between >12.5 μg/mL and ≦150 μg/mL is indicated by a single star (*)); MIC 27853 [9]: ** (an MIC value between >3.5 μg/mL and ≦12.5 μg/mL is indicated by two stars (**))
4 | CCc1c(-c2ccc(N(C)C)c(F)c2)[nH]c(=O)c(C(=O)O)c1O [Cpd 94, 6-[4-(dimethylamino)-3-fluorophenyl]-5-ethyl-4-hydroxy-2-oxo-1,2-dihydropyridine-3-carboxylic acid] | < 1 | 12.5 to 150 (≈ 39 to 468 µM) | 12.5 to 150 (≈ 39 to 468 µM) | 12.5 to 150 (≈ 39 to 468 µM) | 12.5 to 150 (≈ 39 to 468 µM) | 12.5 to 150 (≈ 39 to 468 µM) | 12.5 to 150 (≈ 39 to 468 µM) | 12.5 to 150 (≈ 39 to 468 µM) | 12.5 to 150 (≈ 39 to 468 µM) | < 1 | < 1 | < 1 | 
5 | CCc1cc(C(=O)O)c(=O)[nH]c1-c1ccc(N2CC[C@@H](O)C2)cc1F [Cpd 225, 5-ethyl-6-{2-fluoro-4-[(3R)-3-hydroxypyrrolidin-1-yl]phenyl}-2-oxo-1,2-dihydropyridine-3-carboxylic acid] | < 1 | 3.5 to 12.5 (≈ 10.1 to 36.1 µM) | 12.5 to 150 (≈ 36.1 to 433 µM) | 12.5 to 150 (≈ 36.1 to 433 µM) |  |  | 12.5 to 150 (≈ 36.1 to 433 µM) | 1 to 3.5 (≈ 2.89 to 10.1 µM) | 12.5 to 150 (≈ 36.1 to 433 µM) |  |  |  | 
6 | CCc1c(-c2ccc(N3CC4CCCCC4(C#N)C3)cc2)[nH]c(=O)c(C(=O)O)c1O.O=C(O)C(F)(F)F (stereo not shown) [Cpd 276, 6-[4-(3a-cyanooctahydro-2H-isoindol-2-yl)phenyl]-5-ethyl-4-hydroxy-2-oxo-1,2-dihydropyridine-3-carboxylic acid trifluoroacetate] |  | 12.5 to 150 | 1 to 3.5 | 12.5 to 150 |  |  | 12.5 to 150 | 12.5 to 150 | 12.5 to 150 |  |  |  | MIC [1]: < 1 mg/L
7 | CCc1c(-c2ccc(N3C[C@H]4CC[C@H](NC)[C@H]4C3)cc2)[nH]c(=O)c(C(=O)O)c1O.Cl [Cpd 267, 5-ethyl-4-hydroxy-6-{4-[(3aR,4S,6aS)-4-(methylamino)hexahydrocyclopenta[c]pyrrol-2(1H)-yl]phenyl}-2-oxo-1,2-dihydropyridine-3-carboxylic acid hydrochloride] | 1 to 3.5 | 3.5 to 12.5 | 12.5 to 150 | 3.5 to 12.5 |  |  | 12.5 to 150 | 3.5 to 12.5 | 12.5 to 150 |  |  |  | 
8 | CCc1c(-c2ccc(N3CCC(C4(N(C)C)CC4)C3)cc2)[nH]c(=O)c(C(=O)O)c1O (stereo not shown) [Cpd 247, 6-(4-{3-[1-(dimethylamino)cyclopropyl]pyrrolidin-1-yl}phenyl)-5-ethyl-4-hydroxy-2-oxo-1,2-dihydropyridine-3-carboxylic acid] | < 1 | 3.5 to 12.5 (≈ 8.51 to 30.4 µM) | 3.5 to 12.5 (≈ 8.51 to 30.4 µM) | 12.5 to 150 (≈ 30.4 to 365 µM) |  |  | 12.5 to 150 (≈ 30.4 to 365 µM) | 3.5 to 12.5 (≈ 8.51 to 30.4 µM) | 12.5 to 150 (≈ 30.4 to 365 µM) |  |  |  | 
9 | CCc1cc(C(=O)O)c(=O)[nH]c1-c1ccc(N2C[C@@H]3[C@@H](N)[C@@H]3C2)cc1F [Cpd 231, 6-{4-[(1R,5S,6s)-6-amino-3-azabicyclo[3.1.0]hex-3-yl]-2-fluorophenyl}-5-ethyl-2-oxo-1,2-dihydropyridine-3-carboxylic acid trifluoroacetate] |  | 1 to 3.5 | 12.5 to 150 | 12.5 to 150 |  |  | 12.5 to 150 | 1 to 3.5 | 12.5 to 150 |  |  |  | MIC [1]: < 1 mg/L
10 | CN[C@@H]1CCC[C@@H]2CN(c3ccc(-c4[nH]c(=O)c(C(=O)O)c(O)c4C)cc3)C[C@@H]21.Cl [Cpd 260, 4-hydroxy-5-methyl-6-{4-[(3aR,4R,7aS)-4-(methylamino)octahydro-2H-isoiridol-2-yl]phenyl}-2-oxo-1,2-dihydropyridine-3-carboxylic acid hydrochloride] |  |  |  |  |  |  |  |  |  |  |  |  | MIC, BAS849 [1, 14]: ** (an MIC value between >3.5 μg/mL and ≦12.5 μg/mL is indicated by two stars (**)); MIC, 25922 [2]: ** (an MIC value between >3.5 μg/mL and ≦12.5 μg/mL is indicated by two stars (**)); MIC, 29213 [3]: *** (an MIC value between >1.0 μg/mL and ≦3.5 μg/mL is indicated by three stars (***)); MIC, LZ3111 ([4]; quinolone resistant E. coli LZ3111): **** (an MIC value of ≦1.0 μg/mL is indicated by four stars (****)); MIC ELZ4000 [5]: ** (an MIC value between >3.5 μg/mL and ≦12.5 μg/mL is indicated by two stars (**)); MIC ELZ4251 [6]: *** (an MIC value between >1.0 μg/mL and ≦3.5 μg/mL is indicated by three stars (***)); MIC BAA747 [7]: * (an MIC value between >12.5 μg/mL and ≦150 μg/mL is indicated by a single star (*)); MIC 35657 [8]: ** (an MIC value between >3.5 μg/mL and ≦12.5 μg/mL is indicated by two stars (**)); MIC 27853 [9]: * (an MIC value between >12.5 μg/mL and ≦150 μg/mL is indicated by a single star (*)); MIC 49247 [10]: * (an MIC value between >12.5 μg/mL and ≦150 μg/mL is indicated by a single star (*)); MIC 25238 [11]: ** (an MIC value between >3.5 μg/mL and ≦12.5 μg/mL is indicated by two stars (**)); MIC 13090 [12]: *** (an MIC value between >1.0 μg/mL and ≦3.5 μg/mL is indicated by three stars (***))
